Patent US20020115642A1, “Beta-lactam antibiotics” (priority 2000, published 2002)
In brackets after ≈: the same amount, converted by molar mass. Read-outs that look alike come from different tables or passages of the source.

How the values were obtained:
E. aerogenes = experiment: Susceptibility testing (MIC, modified NCCLS method); assay type: cell-based, Enterobacter aerogenes; conditions: E. aerogenes (5)
In short: (§1)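 Growth inhibition was scored by optical density increase at 600 nm. Bacteria in broth were added at roughly 1-1.5×10^6 cells/ml to 20 twofold serial dilutions of compound, prepared from water or DMSO stocks. The NCCLS MIC procedure was modified for high throughput.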

P. aeruginosa = experiment: as above; assay type: cell-based, Pseudomonas aeruginosa
In short: as §1

E. faecalis = experiment: as above; assay type: cell-based, Enterococcus faecalis; conditions: E. faecalis (7)
In short: as §1

TEM-1 β-lactamase = molecular target: T1, TEM-1 β-lactamase (Escherichia coli, UniProt P62593); assay type: biochemical; conditions: 20 minutes, […] TEM-1, 4 μM solution of Compound (9)
T1 construct: His tag (N); made in house; host or cells: Escherichia coli BL21(DE3)
Procedure: Assays were conducted at 37° C. in 100 mM potassium phosphate buffer pH 7.2 with 1 mM EDTA and 0.5 μg/ml TEM-1 β-lactamase. […] Hydrolysis product (triclosan) was separated from Compound (9) by use of an HP1100 series HPLC equipped with an Alltech Adsorbosphere HS(C18)5u 150 mm×4.6 mm column. The mobile phase was isocratic containing 55% acetonitrile and 0.1% TFA producing retention times of 20.4 minutes and 24.1 minutes for triclosan and Compound (9), respectively. Quantitation of triclosan was based on the A260 integrated peak area as compared to triclosan standards.
A typical TEM-1 β-lactamase assay is conducted at 37° C. in 1.4 ml of 100 mM potassium phosphate pH 7.2, 1 mM; ethylenediamine tetraacetic acid (EDTA) and 25 nM TEM-1 β-lactamase. A test compound is assayed at several concentrations, for example at 5 and 20 μM. […] Substrates and products are separated and quantitated via HPLC (described below). […]
Kinetic parameters of test compounds (kcat and Km) are determined from a simultaneous progress curve analysis of substrate consumption and product formation (when both are observable) as fit to the equations: […]
Hydrolysis product (triclosan) was separated from Compound (9) by use of an HP1100 series HPLC equipped with an Alltech Adsorbosphere HS(C18)5μ150 mm×4.6 mm column. […] Quantitation of triclosan was based on the A260 integrated peak area as compared to triclosan standards.

[1] = tested on: Vancomycin-resistant E. faecalis or E. faecium; experiment: Susceptibility testing (MIC, modified NCCLS method); assay type: cell-based, Enterococcus faecalis, Enterococcus faecium; conditions: VRE (5)
Procedure: (§2) The NCCLS (National Committee for Clinical Laboratory Standards) method to determine MIC's of antimicrobial compounds was modified for high-throughput screening. All stocks of tested compounds were prepared in either water or in dimethylsulfoxide (DMSO), depending on the solubility. […] Briefly 20 2-fold serial dilutions of testing compounds from the highest concentration were made in a 384-well microtiter plate. Each well was inoculated with testing bacteria in broth to a final concentration of approximately 1-1.5×10^6 cells/ml. Bacterial growth was determined by the increase of optical density at 600 nm using a microplate reader (Tecan SpectraFluor Plus).

[2] = tested on: S. aureus clinical isolates; experiment: MIC by agar dilution, recent clinical isolates (UCSD Medical Center); assay type: cell-based, Staphylococcus aureus; conditions: MRSA (17)
E. cloacae = experiment: Susceptibility testing (MIC, modified NCCLS method); assay type: cell-based, Enterobacter cloacae; conditions: E. cloacae (1)
In short: as §1

Staphylococcus aureus = experiment: as above; assay type: cell-based; conditions: for MIC: Staphylococcus aureus
In short: as §1

[3] = tested on: UDP-glucuronosyltransferase; experiment: Glucuronidation assay; assay type: in vitro ADME, human
Procedure: Assays were conducted as outlined in Example 15, using 100 μM Compound (9), triclosan or cephalothin incubated with 100 μg human liver microsome at 37° C. for 1 hour. The reactants were analyzed on TLC plate, and glucuronidated compounds were visualized by MolecularDynamics Storm 820.
Glucuronidation assay was performed based on modified procedure from Bansal and Gessner (1980) Anal. Biochem. 109:321-329. Reactions were performed in 50 mM Tris buffer, pH 7.6, containing 10 mM MgCl2, ImM UDPGA, 0.04 μCi of ^14C-UDPGA, 0.1 mM substrate, and 100 μg human liver microsome. The final volume was 100 μL. Reactions were incubated at 37° C. for one hour and the reactants extracted with 200 μL of 100% ethanol. The protein was removed by centrifugation at 12,000×g for 5 minutes in an Eppendorf centrifuige. The supernatant was dried and resuspended in 30 μL of 100% methanol and spotted on a Whatman glass-backed linear k TLC plate. Chromatography was performed in a mixture of 1-butanol/acetone/acetic acid/water (35:35:10:20). The TLC plate was then dried and exposed to phosphor imager overnight, then monitored by imaging (MolecularDynamics Storm 820).

S. pneumoniae = experiment: Susceptibility testing (MIC, modified NCCLS method); assay type: cell-based, Streptococcus pneumoniae; conditions: S. pneumoniae (3)
Procedure: as §2

[4] = tested on: S. aureus clinical isolates; experiment: MIC by agar dilution, recent clinical isolates (UCSD Medical Center); assay type: cell-based, Staphylococcus aureus; conditions: MSSA (14)
Procedure: Growth of all 14 isolates of MSSA was inhibited by Compound (9) at the lowest tested concentration (0.08 μg/ml) (See Table 6, below).

S. aureus (ATCC#700260) = experiment: Bactericidal assay; assay type: cell-based; conditions: 0.6 μg/ml
Procedure: Compound (9) was added in log-phase S. aureus (ATCC#700260) and incubated at 37° C. The final concentration of cells at hour 0 was 1.3×10^6 cells/ml, and Compound (9) was 0.6 μg/mL. […]
Overnight broth cultures of S. aureus (ATCC#700260) were diluted 100 times into liquid medium and allowed to grow to exponential phase (OD600=0.6). Next the bacteria were diluted into fresh medium to give a working concentration of 10^6 cells/ml. Compound (9) was added to a final concentration of 0.6 μg/ml, and the suspension was incubated at 37° C. […] The samples were diluted at 10^−3×, 10^−4× or 10^−5× fold, and plated onto agar plates. The plates were incubated for 24 hours at 37° C. to obtain a viable cell count.

H. influenzae = experiment: Susceptibility testing (MIC, modified NCCLS method); assay type: cell-based, Haemophilus influenzae; conditions: H. influenzae (4)
Procedure: as §2

T1 sequence (P62593 24-286 limits assumed): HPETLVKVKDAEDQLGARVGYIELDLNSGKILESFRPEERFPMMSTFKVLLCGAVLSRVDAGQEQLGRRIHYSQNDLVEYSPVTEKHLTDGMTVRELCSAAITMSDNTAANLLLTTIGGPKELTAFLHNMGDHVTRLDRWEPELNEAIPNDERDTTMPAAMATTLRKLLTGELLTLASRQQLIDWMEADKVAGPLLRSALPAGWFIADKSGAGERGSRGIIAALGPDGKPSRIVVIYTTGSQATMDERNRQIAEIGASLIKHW

SMILES: O=C(Cc1cccs1)N[C@@H]1C(=O)N2C(C(=O)O)=C(COc3cc(Cl)ccc3Oc3ccc(Cl)cc3Cl)CS[C@H]12 [Compound 9, 3-(2-(2,4-Dichlorophenoxy)-5-chlorophenoxy)methyl-7-(2-thienylacetamido)-3-cephem-4-carboxylic acid]
- MIC range (E. aerogenes): 500 to 8000 ng/mL
- MIC (E. aerogenes; Klebsiella aerogenes, read-out: GM* MIC (geometric mean)): 3360 ng/mL (≈ 5370 nM)
- activity against P. aeruginosa (P. aeruginosa): no activity
- MIC range (P. aeruginosa; P. aeruginosa (7)): >15600 ng/mL
- MIC (P. aeruginosa; Pseudomonas aeruginosa, P. aeruginosa (7), read-out: GM* MIC (geometric mean)): > 15600 ng/mL
- MIC range (E. faecalis): 8000 to 16000 ng/mL
- MIC (E. faecalis; Enterococcus faecalis, read-out: GM* MIC (geometric mean)): 8000 ng/mL (≈ 12800 nM)
- converted to triclosan (TEM-1 β-lactamase): ~90%
- MIC ([1]; Enterococcus, read-out: GM* MIC (geometric mean)): 10300 ng/mL (≈ 16500 nM)
- MIC range [1]: 8000 to 16000 ng/mL
- MIC range [2]: 80 to 600 ng/mL
- MIC50 ([2]; Staphylococcus aureus): 80 ng/mL (≈ 128 nM)
- MIC90 ([2]; Staphylococcus aureus): 300 ng/mL (≈ 479 nM)
- MIC range (E. cloacae): 1000 ng/mL (≈ 1600 nM)
- MIC (E. cloacae; Enterobacter cloacae, read-out: GM* MIC (geometric mean)): 1000 ng/mL (≈ 1600 nM)
- fold greater potency than vancomycin (Staphylococcus aureus; MRSA and vancomycin-resistant S. aureus): at least 85 fold
- Geometric mean of MIC (Staphylococcus aureus; S. aureus β-lactamase negative (2), listed as Comp. 9): 1410 ng/mL
- MIC (Staphylococcus aureus; ATCC11632, ATCC 11632, methicillin-sensitive, β-lactamase Neg./Pos., read-out: MIC): 0.015 ng/mL (≈ 0.024 nM)
- MIC (Staphylococcus aureus; ATCC13301, ATCC 13301, methicillin-sensitive, β-lactamase Positive, read-out: MIC): 0.015 ng/mL (≈ 0.024 nM)
- MIC (Staphylococcus aureus; ATCC14154, ATCC 14154, methicillin-sensitive, β-lactamase Positive, read-out: MIC): 0.015 ng/mL (≈ 0.024 nM)
- MIC (Staphylococcus aureus; ATCC33591, ATCC 33591, methicillin-resistant, β-lactamase Positive, read-out: MIC): 0.03 ng/mL (≈ 0.0479 nM)
- MIC (Staphylococcus aureus; ATCC33592, ATCC 33592, methicillin-sensitive, β-lactamase Positive, read-out: MIC): 0.015 ng/mL (≈ 0.024 nM)
- MIC (Staphylococcus aureus; ATCC33593, ATCC 33593, methicillin-resistant, β-lactamase Positive, read-out: MIC): 0.015 ng/mL (≈ 0.024 nM)
- MIC (Staphylococcus aureus; ATCC33594, ATCC 33594, methicillin-sensitive, β-lactamase Positive, read-out: MIC): 0.015 ng/mL (≈ 0.024 nM)
- MIC (Staphylococcus aureus; ATCC43300, ATCC 43300, methicillin-sensitive, β-lactamase Neg./Pos., read-out: MIC): 0.06 ng/mL (≈ 0.0959 nM)
- MIC (Staphylococcus aureus; ATCC700260, ATCC 700260, methicillin-sensitive, β-lactamase Positive, read-out: MIC): 0.015 ng/mL (≈ 0.024 nM)
- MIC (Staphylococcus aureus; ATCC700698, ATCC 700698, methicillin-resistant, β-lactamase Negative, read-out: MIC): 1000 ng/mL (≈ 1600 nM)
- MIC (Staphylococcus aureus; ATCC700699, ATCC 700699, methicillin-resistant, β-lactamase Negative, read-out: MIC): 2000 ng/mL (≈ 3200 nM)
- MIC (Staphylococcus aureus; ATCC700787, ATCC 700787, methicillin-resistant, β-lactamase Positive, read-out: MIC): 1000 ng/mL (≈ 1600 nM)
- MIC (Staphylococcus aureus; ATCC700788, ATCC 700788, methicillin-resistant, β-lactamase Positive, read-out: MIC): 250 ng/mL (≈ 399 nM)
- MIC (Staphylococcus aureus; ATCC700789, ATCC 700789, methicillin-resistant, β-lactamase Positive, read-out: MIC): 31 ng/mL (≈ 49.5 nM)
- MIC (Staphylococcus aureus; MRSA, MRSA tested (7), read-out: Geometric mean of MIC): 25 ng/mL (≈ 39.9 nM)
- MIC (Staphylococcus aureus; MSSA, MSSA tested (7), read-out: Geometric mean of MIC): 0.018 ng/mL (≈ 0.0288 nM)
- MIC (Staphylococcus aureus; S. aureus (14), read-out: Geometric mean of MIC): 1 ng/mL (≈ 1.6 nM)
- MIC (Staphylococcus aureus; S. aureus β-lactamase negative (2), read-out: Geometric mean of MIC): 1570 ng/mL (≈ 2510 nM)
- MIC (Staphylococcus aureus; S. aureus β-lactamase positive (12), read-out: Geometric mean of MIC): 0.19 ng/mL (≈ 0.304 nM)
- glucuronidation by human liver microsome [3]: not a substrate of UDP-glucuronosyltransferase
- MIC range (S. pneumoniae): 60 to 500 ng/mL
- MIC (S. pneumoniae; Streptococcus pneumoniae, read-out: GM* MIC (geometric mean)): 122 ng/mL (≈ 195 nM)
- MIC range [4]: ≤ 0.08 µg/mL
- MIC range ([4]; listed as Comp. (9)): 0.08-0.08 μg/ml
- MIC50 ([4]; Staphylococcus aureus): 80 ng/mL (≈ 128 nM)
- MIC90 ([4]; Staphylococcus aureus): 80 ng/mL (≈ 128 nM)
- decrease of the number of viable cells (S. aureus (ATCC#700260); 6 hours incubation): 100 fold
- decrease of the number of viable cells compared with time 0 (S. aureus (ATCC#700260); 24 hour incubation): 10,000 fold
- MIC range (H. influenzae): 7.5 to 61 ng/mL
- MIC (H. influenzae; Haemophilus influenzae, read-out: GM* MIC (geometric mean)): 15 ng/mL (≈ 24 nM)
